Laboratory results: patent publication US20180369327A1, “METHOD FOR TREATING OR PREVENTING OSTEOARTHRITIS” (Dong-A University Research Foundation for Industry-Academy …, priority 2017, published 2018)
Entries after “also recorded” stand apart in the source; their conditions may differ.

How the values were obtained:
[1] = tested on: STAMP2; assay: Western blot of STAMP2 protein in articular chondrocytes; format: cell-based, rat; conditions: n=4
Description: (§1) Rat articular chondrocytes for primary culture were isolated from knee joint cartilage slices by enzymatic digestion for 1 h with 0.2% type II collagenase (381 units/mg) in DMEM. After the isolated cells were collected by brief centrifugation, they were resuspended in DMEM supplemented with 10% (v/v) FBS, […] streptomycin and 50 units/ml penicillin (Gibco). The cells were plated on culture dishes at a density of 5×10^4 cells/cm^2. The medium was replaced every 2 days, and they reached confluence after approximately 5 days in culture. In each experiment, the cells from three animals were pooled and analyzed three times. FFA were dissolved in absolute ethanol at a concentration of 500 mM and diluted to final concentrations of FFAs with the appropriate concentration of 1% (w/v) FFA-free BSA. Controls were incubated with equal concentrations of FFA-free BSA containing ethanol. […] Cell (2×10^6) were washed twice with ice-cold PBS. Cells were resuspended in lysis buffer [200 ll of icecold solubilizing buffer (300 mM NaCl, 50 mM Tris-Cl (pH 7.6), 0.5% Triton X-100, protease inhibitor cocktail)] and incubated at 4° C. for 30 min. The lysates were centrifuged at 14,000 rpm for 20 min at 4° C. The protein concentrations of the cell lysates were measured with the Bradford protein assay reagent (Bio-Rad). Then, 50 μg of proteins was loaded onto 15 SDS-PAGE. The separated proteins were transferred to nitrocellulose membranes (Amersham Pharmacia Biotech, Piscataway, N.J., USA) and probed with each antibody. Immunostaining with the antibodies was carried out using the Super Signal West Pico enhanced chemiluminescence substrate and detected with LAS-3000PLUS.

[2] = tested on: rat articular chondrocytes; assay: Phase contrast microscopy of oleate-induced cell death; format: cell-based; conditions: 25 ng/ml TNF-α, 1.5 mM oleate; n=4
[3] = tested on: rat articular chondrocytes; assay: Cell viability assay (automated trypan blue exclusion); format: cell-based; conditions: n=4
Description: Rat articular chondrocytes for primary culture were isolated from knee joint cartilage slices by enzymatic digestion for 1 h with 0.2% type II collagenase (381 units/mg) in DMEM. After the isolated cells were collected by brief centrifugation, they were resuspended in DMEM supplemented with 10% (v/v) FBS, […] streptomycin and 50 units/ml penicillin (Gibco). The cells were plated on culture dishes at a density of 5×10^4 cells/cm^2. The medium was replaced every 2 days, and they reached confluence after approximately 5 days in culture. In each experiment, the cells from three animals were pooled and analyzed three times.
FFA were dissolved in absolute ethanol at a concentration of 500 mM and diluted to final concentrations of FFAs with the appropriate concentration of 1% (w/v) FFA-free BSA. Controls were incubated with equal concentrations of FFA-free BSA containing ethanol. To examine the effect of several chemicals, cells were pretreated with 150 μg/mL DRB or 30 μM cilostazol for 24 h or 25 ng/ml TNF-α for 3 h before FFA treatment.
siRNA transfection or combination treatment with FFAs. Transfection of siRNA was performed with the use of siPORT Amine and Opti-MEM media. Cells grown to a confluence of 40% to 50% in six-well plates were transfected with 100 nM final siRNA concentration per well. Transfection mixture was added to each well, and incubation occurred for 4 h. Then 2 ml of growth medium was added, and cells were incubated for another 20 h. After siRNA transfection medium was removed, each well was washed in PBS solution. Cells were treated with FFAs for 24 hours.
Recombinant adenoviral STAMP2 was prepared as described previously34. Cells (1×10^7) were infected with recombinant adenoviral STAMP2 at multiplicities of infection (MOI) of 500, 1000 and 1500 to the medium.
An automated trypan blue exclusion assay was undertaken. Total cells and trypan bluestained (i.e., nonviable) cells were counted, and the percentage of nonviable cells was calculated using the Vi-Cell cell counter (Beckman Coulter, Miami, Fla., USA).

[4] = tested on: lipid droplets (LD) in rat articular chondrocytes; assay: Lipid droplet staining (Nile red, BODIPY), confocal microscopy and quantification; format: cell-based
Description: Rat articular chondrocytes for primary culture were isolated from knee joint cartilage slices by enzymatic digestion for 1 h with 0.2% type II collagenase (381 units/mg) in DMEM. After the isolated cells were collected by brief centrifugation, they were resuspended in DMEM supplemented with 10% (v/v) FBS, […] streptomycin and 50 units/ml penicillin (Gibco). The cells were plated on culture dishes at a density of 5×10^4 cells/cm^2. The medium was replaced every 2 days, and they reached confluence after approximately 5 days in culture. In each experiment, the cells from three animals were pooled and analyzed three times. FFA were dissolved in absolute ethanol at a concentration of 500 mM and diluted to final concentrations of FFAs with the appropriate concentration of 1% (w/v) FFA-free BSA. Controls were incubated with equal concentrations of FFA-free BSA containing ethanol. […] Cells cultured on a coverslip were incubated with diluted Nile red or BODIPY 493/503. Some sections were double-labelled with TUNEL and BODIPY 493/503 and counterstained with Hoechst 33342. Fluorescence images were observed and analyzed using a Zeiss LSM 510 laser-scanning confocal microscope (Goettingen, Germany). Twenty cells from each experiment were observed and auantification of fluorescence intensity of the confocal images were obtained with the use of ImageJ software. Fluorescence intensity was expressed as AU.

[5] = tested on: caspase-3 and -7; assay: Western blot of apoptosis-related factors (caspase-3 and -7 activation); format: cell-based, rat; conditions: 100 μM DRB with 1 mM oleate; n=4
Description: as §1, with “The lysates were centrifuged at 14,000 rpm for 20 min at 4° C.” left out, “Then, 50 μg of proteins was loaded onto 15 SDS-PAGE. The separated proteins were transferred to nitrocellulose membranes (Amersham Pharmacia Biotech, Piscataway, N.J., USA) and probed with each antibody.” left out

[6] = tested on: rat articular chondrocytes; assay: Total cytosol FFA content measurement; format: cell-based
Description: Cell were collected after treatment with trypsin (0.2% trypsin, 0.02% EDTA and 0.2% glucose in PBS) and pelleted by centrifugation (200×g for 5 min at 4° C.). Cell pellet was resuspended in ice-cold hypotonic lysis medium containing 20 mM Tris-HCl, pH 7.4 and 1 mM EDTA. Cells were homogenized with a Dounce homogenizer and then centrifuged (800×g for 5 min at 4° C.). The post-nuclear supernatant fraction was ultra-centrifuged ([…] for 5 min at 4° C.) using Beckman Table-top ultracentrifuge. LD fraction with the distinct white band on the preparation was removed with a pipetman and LD-free cytosol was used for FFA measurement. Cytosol FFA levels were measured using a commercial free fatty acid quantification kit from Abcam (ab65341).

[7] = tested on: FSP27; assay: Western blot of FSP27 protein in articular chondrocytes; format: cell-based, rat; conditions: n=4
Description: as §1

Molecule: TNF-α
- effect on oleate-induced downregulation of STAMP2 protein ([1]; 25 ng/ml TNF-α, 1.5 mM oleate): completely reversed the 1.5 mM oleate-induced downregulation of the expression level of STAMP2 protein; also recorded: reversed 1.5 mM oleate (0)-induced downregulation of STAMP2 protein
- effect on oleate-induced cell death (phase contrast microscopy) [2]: prevented oleate-induced cell death
- effect on oleate-induced cell death (viability) ([3]; 25 ng/ml TNF-α, 1.5 mM oleate): completely reversed 1.5 mM oleate-induced cell death; also recorded: prevented 1.5 mM oleate-induced cell death
- effect on oleate-induced reduction of LD size and total LD volume ([4]; TNF-α, 1.5 mM oleate): completely reversed the 1.5 mM oleate-induced reduction in total LD volume; also recorded: reversed 1.5 mM oleate-induced reduction of LD size and total LD volume

Molecule: OC[C@H]1O[C@@H](n2cnc3cc(Cl)c(Cl)cc32)[C@H](O)[C@@H]1O [DRB, 5,6-dichlorobenzimidazol riboside]
- activation of caspase-7 and -3 [5]: activated caspase-7 and -3
- FFA level in the cytosol ([6]; 1.0 mM oleate with DRB versus without): significantly increased the FFA level in the cytosol
- FFA level in the cytosol ([6]; cells treated with 0.6 mM palmitate and 0.4 mM oleate, n=4): significantly increased the FFA level in the cytosol
- expression level of STAMP2 ([1]; DRB): decreased
- influence on lipotoxicity of oleate/palmitate combination (viability) ([3]; 0.4 mM oleate with 0.6 or 1.6 mM palmitate): reciprocal influences on lipotoxicity
- LD accumulation ([4]; DRB in cells treated with 0.4 mM oleate and 0.6 mM palmitate): significantly reduced the LD accumulation
- LD size and LD accumulation ([4]; DRB pre-/co-treatment, 1 mM oleate): reversed oleate-induced LD enlargement; also recorded: reduces LD size and LD accumulation
- total LD volume ([4]; co-treatment with DRB versus 1 mM oleate, n=4): significantly decreased
- level of FSP27 protein ([7]; 100 μM DRB with 1 mM oleate): decreased the levels of FSP27 protein
- expression level of FSP27 ([7]; DRB): decreased

Molecule: CCCCCCCCCCCCCCCCCC(=O)O [stearate, stearic acid]
- expression level of STAMP2 ([1]; FFA at toxic concentrations): reduced the expression level of STAMP2
- cell viability ([3]; FFA alone at 0.5 to 2 mM): significantly reduced cell viability

Molecule: zVAD-fmk
- effect on oleate-induced cell death (viability) ([3]; zVAD-fmk with 1.5 mM oleate): significantly prevented 1.5 mM oleate-induced cell death
